# Reference: PMC11397024, “Strategic Fluorination to Achieve a Potent, Selective, Metabolically Stable, and Orally Bioavailable Inhibitor of CSNK2” (Molecules, 2024)
# Entries after “also recorded” stand apart in the source; their conditions may differ.
# Columns and labels:
# DAPK2 = molecular target: T1, DAPK2 (Homo sapiens, UniProt Q9UIK4); test: NanoBRET dose-response DAPK2; type: cell-based; details: highest concentration tested 30 μM
# T1 construct: expressed in transfected cells; host or cells: HEK293
# T1 sequence (Q9UIK4 whole entry): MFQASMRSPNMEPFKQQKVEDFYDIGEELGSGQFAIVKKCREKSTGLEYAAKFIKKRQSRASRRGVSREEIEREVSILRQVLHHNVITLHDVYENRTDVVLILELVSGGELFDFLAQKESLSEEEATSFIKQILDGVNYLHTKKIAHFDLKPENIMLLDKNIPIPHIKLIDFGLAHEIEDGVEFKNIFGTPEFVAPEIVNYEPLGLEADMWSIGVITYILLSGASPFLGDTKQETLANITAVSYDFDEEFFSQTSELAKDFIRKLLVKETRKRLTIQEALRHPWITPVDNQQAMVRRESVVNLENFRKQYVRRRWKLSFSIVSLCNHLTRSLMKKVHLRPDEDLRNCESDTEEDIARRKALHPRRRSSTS
# CSNK2 = test: In vitro inhibition of phosphorylation of EIF2S2; type: cell-based, Human; details: A549-ACE2 cells, 1 μM and 5 μM, 24 h, Western blot
# [1] = Hepatocyte stability, mouse; type: in vitro ADME; details: male, CD-1, cryopreserved hepatocytes, over 2 h
# Description: (§1) Human cryopreserved hepatocytes were supplied by BioIVT (lot QZW, 10 pooled donors, Westbury, NY, USA). Mouse cryopreserved hepatocytes were supplied by BioIVT (lot ZPG, pooled male CD-1). Vials of cryopreserved hepatocytes were removed from storage and thawed in a 37 °C water bath with gentle shaking, and then the contents were poured into a 50 mL thawing medium conical tube. Vials were centrifuged at 100× g for 10 min at room temperature. The thawing medium was aspirated, and hepatocytes were resuspended with a serum-free incubation medium to yield ~1.5 × 10^6 cells/mL. Cell viability and density were counted using AO/PI fluorescence staining, and then cells were diluted with a serum-free incubation medium to a working cell density of 0.5 × 10^6 viable cells/mL. Aliquots of 198 μL of hepatocytes were dispensed into each well of a 96-well noncoated plate. The plate was placed in an incubator for approximately 10 min. […] Peak areas were determined from extracted ion chromatograms, and the slope value, k, was determined by linear regression of the natural logarithm of the remaining percentage of the parent drug vs. incubation time curve. The intrinsic clearance (CLint in μL/min/10^6 cells) was calculated using the relationship CLint = kV/N, where V is the incubation volume (0.2 mL) and N is the number of hepatocytes per well (0.1 × 10^6 cells). […]
# [2] = Hepatocyte stability, human; type: in vitro ADME; details: cryopreserved hepatocytes, over 2 h
# Description: as §1
smiles,measurement,setting,value
"CCC(=O)Nc1cc(Nc2cc(NC3CC3)n3ncc(C#N)c3n2)c(F)cc1N1CCC[C@H](NC)C1 [Compound 2, (S)-N-(5-((3-cyano-7-(cyclopropylamino)pyrazolo[1,5-a]pyrimidin-5-yl)amino)-4-fluoro-2-(3-(methylamino)piperidin-1-yl)phenyl)propionamide]",IC50,DAPK2,> 30 µM
same,phosphorylation levels of the CSNK2 substrate EIF2S2,CSNK2,inhibited; also recorded: dose-dependent reduction
same,CLint scaled at 1 μM,[1],180 mL/min/kg
same,CLint scaled at 1 μM,[2],6.9 mL/min/kg
